Our source for the IC50 values is patent US20160326143A1, “COMPOUNDS AND USES” (AstraZeneca AB, priority 2015, published 2016).

Chain of Recombinant human LTC4 synthase (Q16873 whole entry): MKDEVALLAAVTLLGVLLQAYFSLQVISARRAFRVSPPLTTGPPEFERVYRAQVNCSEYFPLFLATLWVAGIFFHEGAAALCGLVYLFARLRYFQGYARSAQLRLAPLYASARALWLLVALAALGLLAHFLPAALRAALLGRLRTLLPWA

The target of the first assay is human recombinant purified LTC4 synthase (Homo sapiens (Human), UniProt Q16873).
Chain of human recombinant purified LTC4 synthase (Q16873 whole entry): as above
Experiment: not given
The note with it: read-out: hLTC4 synthase IC50; Test B (Examples 62-65); substrate LTA4 methyl ester, product detected by LCMSMS; median of at least two determinations.
Consider `COc1nc(N(CC(C)(C)F)c2cc(C(F)(F)F)ccc2F)cnc1C(=O)[C@H]1C[C@@H]1C(=O)O` [Example 63, (1S,2S)-2-[(5-{(2-Fluoro-2-methylpropyl)[2-fluoro-5-(trifluoromethyl)phenyl]amino}-3-methoxypyrazin-2-yl)carbonyl]cyclopropanecarboxylic acid], for which the IC50 was 0.248 nM.
Consider `COc1cc(N(CC(C)C)c2cc(C(F)(F)F)ccc2F)cnc1C(=O)[C@H]1C[C@@H]1C(=O)O` [Example 65, (1S,2S)-2-[(5-{[2-Fluoro-5-(trifluoromethyl)phenyl](2-methylpropyl)amino}-3-methoxypyridin-2-yl)carbonyl]cyclopropanecarboxylic acid], for which the concentration for half-maximal inhibition (IC50) came to 0.658 nM.

The next assay concerns the target Recombinant human LTC4 synthase (Homo sapiens (Human), UniProt Q16873). Briefly: In vitro hLTC4 synthase enzyme assay (Test A). The format is biochemical. The settings on record: Test A (Examples 1-61); substrate LTA4, LTC4 detected by HTRF; median of at least two determinations. The method, then: In Vitro hLTC4 Synthase Enzyme Assay (Test A)
Recombinant human LTC4 synthase is expressed in Piccia pastoralis and the purified enzyme is dissolved in 25 mM tris-buffer pH 7.8 supplemented with 0.1 mM glutathione (GSH) and stored at −80° C.
The buffer is used as background. Runs are performed in duplicates.
The reaction is stopped after 1 min by addition of double the reaction volume of a stop solution (MeOH:H2O:acetic acid 70:30:1).
After 15 fold dilution in PBS, LTC4 formation is detected with LTC4 HTRF kit (Cisbio, cat. No 64LC4PEC) and a fluorescence reader. Typically 6 μL of sample is mixed with 3 μL of each of the HTRF reagents d2 and k and analyzed as described in the kit manual.
In the case of `COc1cc(N(CC2CC2)c2ccc(F)c3ccccc23)ccc1C(=O)C1CC1C(=O)O` (stereo not drawn) [Example 46, 2-(4-((Cyclopropylmethyl)(4-fluoronaphthalen-1-yl)amino)-2-methoxybenzoyl)cyclopropanecarboxylic acid], the IC50 turned out to be 26 nM.
With `COc1cc(N(CC2CC2)c2ccc(Cl)c3ccccc23)ccc1C(=O)C1CC1C(=O)O` (stereo not drawn) [Example 47, 2-(4-((4-Chloronaphthalen-1-yl)(cyclopropylmethyl)amino)-2-methoxybenzoyl)cyclopropanecarboxylic acid], the IC50 worked out at 61 nM.
Same read-out and setting: the result for `COc1cc(N(CC2CC2)c2cccc3ccccc23)ccc1C(=O)C1CC1C(=O)O` (stereo not drawn) [Example 48, 2-(4-((Cyclopropylmethyl)(naphthalen-1-yl)amino)-2-methoxybenzoyl)cyclopropanecarboxylic acid] reads 46 nM; that for `COc1cc(N(CC2CC2)c2ccc(Cl)cc2)ccc1C(=O)C1CC1C(=O)O` (stereo not drawn) [Example 49, 2-(4-((4-Chlorophenyl)(cyclopropylmethyl)amino)-2-methoxybenzoyl)cyclopropanecarboxylic acid], 65 nM; that for `COc1cc(N(CC2CC2)c2ccc(C)c(C)c2)ccc1C(=O)C1CC1C(=O)O` (stereo not drawn) [Example 50, 2-(4-((Cyclopropylmethyl)(3,4-dimethylphenyl)amino)-2-methoxybenzoyl)cyclopropanecarboxylic acid], 75 nM.
Same read-out and setting: in the case of `COc1cc(N(Cc2ccc(Cl)cc2)CC2CC2)ccc1C(=O)C1CC1C(=O)O` (stereo not drawn) [Example 51, 2-(4-((4-Chlorobenzyl)(cyclopropylmethyl)amino)-2-methoxybenzoyl)cyclopropanecarboxylic acid] it was 68 nM; in that of `COc1cc(N(CC2CC2)c2ccc(C)c3ncccc23)ccc1C(=O)C1CC1C(=O)O` (stereo not drawn) [Example 52, 2-(4-((Cyclopropylmethyl)(8-methylquinolin-5-yl)amino)-2-methoxybenzoyl)cyclopropanecarboxylic acid], 359 nM; in that of `COc1cc(N(CC2CC2)c2ccc(C(F)(F)F)c3cccnc23)ccc1C(=O)C1CC1C(=O)O` (stereo not drawn) [Example 53, 2-(4-((Cyclopropylmethyl)(5-(trifluoromethyl)quinolin-8-yl)amino)-2-methoxybenzoyl)cyclopropanecarboxylic acid], 152 nM.
Still for that read-out and setting: in the case of `O=C(O)C1CC1C(=O)c1ccc(N(CC2CC2)c2ccc(Cl)cc2)cn1` (stereo not drawn) [Example 54, 2-(5-((4-Chlorophenyl)(cyclopropylmethyl)amino)picolinoyl)cyclopropanecarboxylic acid] it was 424 nM; in that of `O=C(O)C1CC1C(=O)c1ccc(N(Cc2ccc(Cl)cc2)CC2CC2)cn1` (stereo not drawn) [Example 55, 2-(5-((4-Chlorobenzyl)(cyclopropylmethyl)amino)picolinoyl)cyclopropanecarboxylic acid], 636 nM.
With `COc1nc(C(=O)C2CC2C(=O)O)ncc1N(CC1CC1)c1ccc(Cl)c2ccccc12` (stereo not drawn) [Example 56, 2-(5-((4-Chloronaphthalen-1-yl)(cyclopropylmethyl)amino)-4-methoxypyrimidine-2-carbonyl)cyclopropanecarboxylic acid], the IC50 is 17 nM.
The same measure, in the same setting: in the case of `COc1nc(C(=O)C2CC2C(=O)O)ncc1N(CC1CC1)c1cccc2ccccc12` (stereo not drawn) [Example 57, 2-(5-((Cyclopropylmethyl)(naphthalen-1-yl)amino)-4-methoxypyrimidine-2-carbonyl)cyclopropanecarboxylic acid] it was 50 nM; in that of `COc1nc(C(=O)C2CC2C(=O)O)ncc1N(CC1CC1)c1ccc(F)c2ccccc12` (stereo not drawn) [Example 58, 2-(5-((Cyclopropylmethyl)(4-fluoronaphthalen-1-yl)amino)-4-methoxypyrimidine-2-carbonyl)cyclopropanecarboxylic acid], 19 nM.
Still for that read-out and setting: the result for `COc1nc(C(=O)C2CC2C(=O)O)ncc1N(CC1CC1)c1ccc(C)c2ccccc12` (stereo not drawn) [Example 59, 2-(5-((Cyclopropylmethyl)(4-methylnaphthalen-1-yl)amino)-4-methoxypyrimidine-2-carbonyl)cyclopropanecarboxylic acid] reads 18 nM.
The same measure, in the same setting: the result for `COc1cc(N(CC2CC2)c2cccc3ccccc23)cnc1C(=O)C1CC1c1nnn[nH]1` (stereo not drawn) [Example 60, (2-(1H-Tetrazol-5-yl)cyclopropyl)(5-((cyclopropylmethyl)(naphthalen-1-yl)amino)-3-methoxypyridin-2-yl)methanone] reads 96 nM.
On to `COc1cc(N(CC2CC2)c2ccc(F)c3ccccc23)cnc1C(=O)C1CC1c1nnn[nH]1` (stereo not drawn) [Example 61, (2-(1H-Tetrazol-5-yl)cyclopropyl)(5-((cyclopropylmethyl)(4-fluoronaphthalen-1-yl)amino)-3-methoxypyridin-2-yl)methanone], for which the IC50 turned out to be 39 nM.
